Entries after “also recorded” stand apart in the source; their conditions may differ.
Test system: human monocyte-derived macrophage cells
Test: Nitrite (NO) production in gamma-IFN-primed human monocyte-derived macrophages, Griess reaction
Format: cell-based
Settings: for nitrite levels compared to poly I:C treatment alone: Aβ peptide (5 μM) plus APOE (10 nM) plus poly I:C (50 μg/ml); for change in nitrite levels compared to untreated human MDMs: Aβ peptide alone, 1 to 10 μgM
Description: Cell Cultures: Human monocytes from normal, adult volunteers were generously provided by Dr. D. Webb, Center for Biologics Evaluation and Research, NIH, Bethesda, Md. Elutriated monocytes were cultured in Dulbecco's Modified Eagle Medium (DMEM) containing 20% fetal calf serum, 10% human […] (ABI Technologies, Columbia, Md.) and […] human M-Colony Stimulating Factor (M-CSF, Genzyme, Boston, Mass.) at 37° C. in a humidified atmosphere of 5% CO2, 95% air. After 5 to 7 days, morphological changes including spreading and branching of the cells signaled differentiation from monocytes to macrophages and are now commonly called “Monocyte-Derived Macrophages” (MDMs). MDM cells were removed from the flasks by gentle trypsinization, plated at 40,000 cells/well into 96 well microtiter plates and allowed to recover overnight. These MDM cells were then primed by exposure to 1000 U/ml recombinant human gamma interferon (gamma-IFN, Sigma Chemical Co., St. Louis, Mo.) diluted into HL-1 serum free media (Hycor Biomedical Include, Irvine, Calif.). At the end of 12 h priming with gamma-IFN, the priming media was replaced with HL-1 serum free media before experimental treatments as listed in the text. Following experimental treatments, the media was removed and assayed for nitrite levels using the Griess reaction [Colton, C. et al., Mol. Chem. Neuropathol. 28, 15-20 (1996)].
Treatment Factors and Conditions: M-CSF-differentiated and gamma-IFN-primed monocyte-derived macrophage cells were treated by incubation with varying concentrations of Aβ 1-40, its reverse sequence Aβ 40-1 and a non-toxic Aβ fragment, Aβ 1-28 (Bachem, Torrance, Calif.). Aβ peptides were diluted into sterile, double-distilled water and allowed to aggregate at room temperature for 48 h and then stored at −80° C. until use. Human apolipoprotein-E purified protein (Chemicon International, Inc., Temecula, Calif.) was reconstituted in serum free media and added to cells. The double stranded polyribonucleotide, polyinosinic:polycytidylic acid (poly I:C potassium salt, Sigma Chemical Co., St. Louis, Mo.) was also reconstituted into serum free media and used to stimulate nitric oxide (NO) production as described by J. Snell et al., Journal of Leukocyte Biology, 62, 369 (1997).
Measurement of Nitric Oxide (NO): After treatment, conditioned media was removed from cells and the level of nitrite, which is a stable end-product of NO release in biological systems, measured using the Griess reaction [Colton, C., supra]. Briefly, conditioned media were transferred to a new 96 well microtiter plate and an equal volume of Griess reagents were added to each well. After 10 minutes of incubation at room temperature, color development was assessed at 550 nm using a plate reader. Nitrite levels are presented as μM/well which contained 40,000 cells and an average (±SEM) obtained for at least 4 wells assayed per experimental condition for each of at least 4 individual donors. Treatment with the nitric oxide synthase (NOS) inhibitor, N-G-methyl-l-arginine (L-NMMA) was used to determine the level of NOS-mediated NO production. Statistical significance was determined using a one way analysis of variance (ANOVA).

CNC(=N)NCCC[C@H](N)C(=O)O [L-NMMA, N-G-methyl-l-arginine]
effect of NOS inhibitor on nitrite levels (L-NMMA added to APOE plus poly I:C stimulated MDMs, data not shown): reduced nitrite levels to those seen in the unstimulated controls; also recorded: inhibitable

APOE: Human apolipoprotein-E purified protein (Chemicon International), reconstituted in serum free media
overall increase in nitrite levels compared to untreated or APOE-alone treated MDMs (10 nM APOE together with 50 μg/ml poly I:C): 282% | increase in nitrite levels compared to poly I:C alone (10 nM APOE together with 50 μg/ml poly I:C, 5 days, p<0.009): 68% | nitrite levels compared to untreated controls (APOE alone, 1 nM to 100 nM, 5 days, gamma-IFN-primed MDMs): no significant increase | NO released compared to unprimed cells (APOE and poly I:C): ~3 fold

Aβ 1-28: non-toxic amyloid-βeta peptide fragment 1-28 (Bachem)
nitrite levels compared to poly I:C treatment alone (5 days): same result | change in nitrite levels compared to untreated human MDMs (5 days, gamma-IFN-primed MDMs): no significant change

Aβ 1-40: toxic amyloid-βeta peptide 1-40 fragment of APP (Bachem), aggregated 48 h
nitrite levels compared to untreated control MDMs (Aβ 1-40 and APOE in the absence of poly I:C): no significant effect | nitrite levels compared to poly I:C treatment alone (5 days): no significant difference | change in nitrite levels compared to untreated human MDMs (5 days, gamma-IFN-primed MDMs): not significantly different; also recorded: no significant change | nitrite levels compared to poly I:C alone (Aβ peptide combined with 50 μg/ml poly I:C, 5 days): not significantly different

boiled APOE: APOE denatured by boiling, control for non-denatured APOE
nitrite levels compared to poly I:C alone (boiled (denatured) APOE together with poly I:C, data not shown): unable to increase NO production

polyinosinic:polycytidylic acid [poly I:C]
increase in nitrite levels compared to untreated controls (gamma-IFN-primed MDMs, 50 μg/ml poly I:C alone, 5 days): 126%
